Measured values as given in US11485725B2, “Derivatives of piperlongumine and uses thereof” (Auransa Inc., priority 2017, dated 2022).

Tests used:
[1] = system: MOLP-8; assay: In vitro cell viability assay (CellTiter-Glo, ATP levels), multiple myeloma cells; type: cell-based; details: Homo sapiens, MOLP-8, 168 h, 7-day incubation, CellTiter-Glo, average values; read-out: MOLP-8 IC50
Description: (§1) In Vitro Cell Viability Assay
(§2) The present disclosure provides a method for inhibiting cell viability, as measured by ATP levels. The method for inhibiting cell viability is drawn to contacting various cancer cells with the compounds described herein at various concentrations. The cancer cell lines were maintained in culture conditions at 37° C. in an atmosphere of 5% CO2 in air. The cells growing in an exponential growth phase were harvested and counted for plating. Compounds were incubated in two cancer cell types representing multiple myeloma (MOLP-8) and triple negative breast cancer (DU4475). Cells were plated at an optimized cell numbers per well in 96-well plates and allowed to attach to the plates overnight at approximately 80% confluency.
(§3) After addition of compounds, plates were incubated for 7-day. At the end of incubation period on day 8, media was removed and replaced with a solution of CellTiter-Glo™ reagent (Promega®) according to protocol. Luminescence was read using an EnVision® multi-label plate reader (Perkin-Elmer®), and signal intensity was calculated relative to positive and negative control wells. Cisplatin was included as the positive control. A dose-response calculation was performed in a non-linear regression fit and by using the Hill equation to calculate a concentration-response curve and 50% inhibitory concentration (IC50) values for each compound.
(§4) The average IC50 values of compounds 1-15 in multiple myeloma (MOLP-8) and triple negative breast cancer (DU4475) cells are shown in Table 1.

[2] = system: DU4475; assay: In vitro cell viability assay (CellTiter-Glo, ATP levels), triple negative breast cancer cells; type: cell-based; details: Homo sapiens, DU-4475, 168 h, 7-day incubation, CellTiter-Glo, average values; read-out: DU4475 IC50
Description: as §1, §2, §3, §4

[3] = system: HCT116 (colorectal cancer) cells; assay: Resazurin-based cell viability assay using colorectal cancer cells; details: Homo sapiens, HCT-116, 72 hr incubation
Description: Determination of Potency of Compounds in Cell Viability Assay Using Colorectal Cancer Cells
The blue dye resazurin-based assay was performed to determine cell viability and used according to manufacture protocol (Sigma®). HCT116 (colorectal cancer) cells were seeded in the DMEM medium (10% FBS serum). Approximately 1,500 cells were plated per well in 96 well plates. Cells were allowed to grow at 37° C. for 24 hr in 5% CO2 environment in a humidified incubator. Serially diluted compounds (100 μL) were added to the culture plate after 24 hr. After addition of compounds, plates were incubated for 72 hr. Experiment was terminated at the designated incubation time by replacing the medium with 100 μL of 1 mM of resazurin (Sigma®) prepared in culture medium (DMEM) and were further incubated in culture conditions for 4-6 hours. Fluorescence was recorded using a multimodal plate reader (Biotek Synergy Neo®) at an excitation wavelength of 535 nm and emission wavelength of 590 nm to obtain relative fluorescence units. Data analysis was done by subtracting the background fluorescence (medium blank) value from each reading and then normalizing with the vehicle control (DMSO treated cells) to obtain percent survival/proliferation. IC50 was calculated from percent survival values using GraphPad Prism® (see Table 1).

| Structure (SMILES) | IC50 [1] [nM] | IC50 [2] [nM] | IC50 [3] [nM] |
| --- | --- | --- | --- |
| COc1cc(/C=C(\C)C(=O)N2CCC=CC2=O)cc2c1OCCO2 [Compound 55, 1-[(2E)-3-(8-methoxy-2,3-dihydro-1,4-benzodioxin-6-yl)-2-methylprop-2-enoyl]-5,6-dihydropyridin-2(1H)-one] | 580 | 830 | 1960 |
| Cn1cc(/C=C/C(=O)N2CCC=CC2=O)cn1 [Compound 56, (E)-1-(3-(1-methyl-1H-pyrazol-4-yl)acryloyl)-5,6-dihydropyridin-2(1H)-one] | 600 | 1380 | 3600 |
| O=C1C=CCCN1C(=O)/C=C/C1CCN(S(=O)(=O)c2ccccc2)CC1 [Compound 57, (E)-1-(3-(1-(phenylsulfonyl)piperidin-4-yl)acryloyl)-5,6-dihydropyridin-2(1H)-one] | 680 | 530 | 1360 |
| O=C(Nc1ccc(F)cc1)N1CCC(/C=C/C(=O)N2CCC=CC2=O)CC1 [Compound 58, N-(4-fluorophenyl)-4-[(1E)-3-oxo-3-(6-oxo-3,6-dihydropyridin-1(2H)-yl)prop-1-en-1-yl]piperidine-1-carboxamide] | 380 | 440 | 1100 |
| CC(C)(C)CN1CCC(/C=C/C(=O)N2CCC=CC2=O)CC1 [Compound 62, (E)-1-(3-(1-neopentylpiperidin-4-yl)acryloyl)-5,6-dihydropyridin-2(1H)-one] | 310 | 580 | 1730 |
| COc1cnc(/C=C/C(=O)N2CCC=CC2=O)nc1 [Compound 63, (E)-1-(3-(5-methoxypyrimidin-2-yl)acryloyl)-5,6-dihydropyridin-2(1H)-one] | 290 | 480 | 2110 |
| O=C1C=CCCN1S(=O)(=O)/C=C/c1ncccn1 [Compound 66, 1-{[(E)-2-(pyrimidin-2-yl)ethenyl]sulfonyl}-5,6-dihydropyridin-2(1H)-one] | 210 | 950 | 3110 |
| O=C1C=CCCN1C(=O)/C=C/C1CCN(c2ncccn2)CC1 [Compound 67, 1-{(2E)-3-[1-(pyrimidin-2-yl)piperidin-4-yl]prop-2-enoyl}-5,6-dihydropyridin-2(1H)-one] | 760 | 960 | 3400 |
| NC(=O)N1CCC(/C=C/C(=O)N2CCC=CC2=O)CC1 [Compound 68, (E)-4-(3-oxo-3-(6-oxo-3,6-dihydropyridin-1(2H)-yl)prop-1-en-1-yl)piperidine-1-carboxamide] | 670 | 1550 | 7380 |
| C/C(=C\c1cnn(C)c1)C(=O)N1CCC=CC1=O [Compound 69, 1-[(2E)-2-methyl-3-(1-methyl-1H-pyrazol-4-yl)prop-2-enoyl]-5,6-dihydropyridin-2(1H)-one] | 1980 | 4010 | 14000 |
| CC1(C)C=CC(=O)N(C(=O)/C=C/C2CCN(C(=O)Nc3ccc(F)cc3)CC2)C1 [Compound 70, (E)-4-(3-(3,3-dimethyl-6-oxo-3,6-dihydropyridin-1(2H)-yl)-3-oxoprop-1-en-1-yl)-N-(4-fluorophenyl)piperidine-1-carboxamide] | 1350 | 1750 | 7060 |
| C/C(=C/C1CCN(C(=O)OC(C)(C)C)CC1)C(=O)N1CCC=CC1=O [Compound 71, (Z)-tert-butyl 4-(2-methyl-3-oxo-3-(2-oxo-5,6-dihydropyridin-1(2H)-yl)prop-1-enyl)piperidine-1-carboxylate] | 3910 | 4670 | 13600 |
| C/C(=C\C1CCN(C(=O)OC(C)(C)C)CC1)C(=O)N1CCC=CC1=O [Compound 72, tert-butyl (E)-4-(2-methyl-3-oxo-3-(6-oxo-3,6-dihydropyridin-1(2H)-yl)prop-1-en-1-yl)piperidine-1-carboxylate] | 2670 | 4430 | 10300 |
| C/C(=C\C1CCN(C(=O)Nc2ccc(F)cc2)CC1)C(=O)N1CCC=CC1=O [Compound 73, (E)-N-(4-fluorophenyl)-4-(2-methyl-3-oxo-3-(6-oxo-3,6-dihydropyridin-1(2H)-yl)prop-1-en-1-yl)piperidine-1-carboxamide] | 950 | 1620 | 4280 |
| O=C1C=CCCN1C(=O)/C=C/C1CCN(c2ccccn2)CC1 [Compound 74, (E)-1-(3-(1-(pyridin-2-yl)piperidin-4-yl)acryloyl)-5,6-dihydropyridin-2(1H)-one] | 660 | 1000 | 2580 |
| Cn1cc(/C=C/S(=O)(=O)N2CCC=CC2=O)cn1 [Compound 75, 1-{[(E)-2-(1-methyl-1H-pyrazol-4-yl)ethenyl]sulfonyl}-5,6-dihydropyridin-2(1H)-one] | 860 | 1600 | 4620 |
| COc1cc(/C=C/S(=O)(=O)N2CCC=CC2=O)cc2c1OCCO2 [Compound 76, 1-{[(E)-2-(8-methoxy-2,3-dihydro-1,4-benzodioxin-6-yl)ethenyl]sulfonyl}-5,6-dihydropyridin-2(1H)-one] | 563 | 1000 | 1850 |
| C/C(=C\C1CCN(CC2CC2)CC1)C(=O)N1CCC=CC1=O [Compound 77, (E)-1-(3-(1-(cyclopropylmethyl)piperidin-4-yl)-2-methylacryloyl)-5,6-dihydropyridin-2(1H)-one] | 3340 | 5440 | 7500 |
| C/C(=C/C1CCN(C(=O)Nc2ccc(F)cc2)CC1)C(=O)N1CCC=CC1=O [Compound 78] | 950 | 1530 | 4850 |
| C/C(=C/C1CCN(CC2CC2)CC1)C(=O)N1CCC=CC1=O [Compound 79, (Z)-1-(3-(1-(cyclopropylmethyl)piperidin-4-yl)-2-methylacryloyl)-5,6-dihydropyridin-2(1H)-one] | 1030 | 1910 | 2690 |
| O=C1C=CCCN1C(=O)/C=C/c1ncc2c(n1)OCCO2 [Compound 80, (E)-1-(3-(6,7-dihydro-[1,4]dioxino[2,3-d]pyrimidin-2-yl)acryloyl)-5,6-dihydropyridin-2(1H)-one] | 1150 | 1800 | 3210 |
| Cc1n[nH]c(C)c1/C=C/C(=O)N1CCC=CC1=O [Compound 81, (E)-1-(3-(3,5-dimethyl-1H-pyrazol-4-yl)acryloyl)-5,6-dihydropyridin-2(1H)-one] | 1490 | 2700 | 5100 |
| O=C(Nc1ccc(F)cc1)N1CCC(/C=C/S(=O)(=O)N2CCC=CC2=O)CC1 [Compound 82, (E)-N-(4-fluorophenyl)-4-(2-((6-oxo-3,6-dihydropyridin-1(2H)-yl)sulfonyl)vinyl)piperidine-1-carboxamide] | 360 | 800 | 2250 |
| Cn1cc(/C=C(/C(=O)N2CCC=CC2=O)c2ccccc2)cn1 [Compound 83, 1-[(2E)-3-(1-methyl-1H-pyrazol-4-yl)-2-phenylprop-2-enoyl]-5,6-dihydropyridin-2(1H)-one] | 2750 | 4840 | 11100 |
| Cn1cc(/C=C(\C(=O)N2CCC=CC2=O)c2ccccc2)cn1 [Compound 84, (Z)-1-(3-(1-methyl-1H-pyrazol-4-yl)-2-phenylacryloyl)-5,6-dihydropyridin-2(1H)-one] | 1550 | 1630 | 3710 |
